From US20100297123A1, “COMBINATION THERAPY TO INHIBIT T CELL EFFECTOR FUNCTION” (priority 2009, published 2010)

What was measured:
effector CD4 T cells = test: CFSE proliferation assay of mouse effector CD4 T cells; assay type: cell-based; conditions: effector CD4 T cells stimulated with anti-CD3/28 and drug(s), FIG. 12B
Description: Proliferation and cell division assays. Cells cultured in 96-well U-bottom plate wells were pulsed with 1 μCi of methyl-[^3H]thymidine (Amersham Biosciences) for 6 h during the last 72 h of stimulation and harvested onto filters (Wallac). Filters were wetted with Betaplate Scintillation fluid (PerkinElmer) and counts per minute read on a 1205 Betaplate Liquid Scintillation Counter (Wallac). For CFSE experiments, cells were labeled with 1 μM CFDA-SE (Sigma-Aldrich) in serum free RPMI 1640 medium for 10 min and washed twice before culturing. CFSE-labeled cells were assayed after 72 h of culture.
GRAIL is expressed during quiescence, lost upon activation. Naïve CD4 T cells were isolated from mouse and stimulated with anti-CD3 and anti-CD28 antibodies in vitro for the indicated number of hours (FIG. 10). Protein was collected and run by Western blot probing for GRAIL and β-actin. Effector CD4 T cells were made by first isolating from naïve mice, then stimulating with anti-CD3/28 for 3 days, split off and rested for 2 more days, then washed and put in fresh media for 2 additional days. Live CD4 T cells were then collected, shown to be at rest, and then activated in the same manner as described above. Protein samples were isolated and probed with anti-GRAII antibody as described in Example 1.
Shown in FIG. 12A, naïve CD4 T cells were labeled with CFSE, a dye that dilutes out with successive cell divisions. The naïve CD4 T cells were stimulated with anti-CD3/28 and the indicated drug(s) and CFSE profiles assessed after 3 days. […] A similar experiment was performed with effector CD4 T cells, prepared as described above.

GRAIL = GRAIL western blot of effector CD4 T cells; assay type: cell-based, mouse; conditions: effector CD4 T cells stimulated with anti-CD3/28, western blot, FIG. 12C
Description: Immunoblots. Whole-cell lysates were made using lysis buffer consisting of 0.5% Nonidet P-40, 100 mM sodium chloride, 0.5 mM EDTA, 20 mM Tris (pH 7.6-8.0), with protease inhibitor mixture (Pierce) and phosphatase inhibitor mixture (Pierce). Protein samples were loaded on 4-15% Tris-HCl gels (Bio-Rad) and separated by SDS-PAGE. Protein was transferred from gel to Immobolin-P polyvinylidene difluoride membrane (Millipore) using Trans-Blot SD Semidry Transfer Apparatus (Bio-Rad) following the manufacturer's instructions. StartingBlock (Tris-buffered saline with 0.05% Tween 20) (Pierce) was used to block membranes and was also used during primary and secondary Ab staining. Secondary Abs were all HRP conjugated (Zymed Laboratories). ECL Plus Western Blotting Reagents (GE Healthcare) were used for chemiluminescent detection of protein. Chemiluminescence signal was exposed onto Amersham Hyperfilm ECL (GE Healthcare). Membranes were stripped using Restore Western Blot Stripping Buffer (Pierce). Densitometry was performed using ImageJ software (National Institutes of Health). […]

mouse naive CD4 T cells = test: CFSE cell division assay of mouse naive CD4 T cells; assay type: cell-based; conditions: anti-CD3/28 stimulation, CFSE profiles after 3 days
Description: Isolation and stimulation of mouse CD4 T cells. Spleen and lymph nodes were harvested from naive mice and homogenized through a strainer. RBC were lysed from the suspension using red blood cell lysing buffer (Sigma-Aldrich). Lymphocytes were isolated by density centrifugation using Lympholyte-M (Cedarlane Laboratories). CD4+ T cells were sorted via negative selection using an AutoMACS sorter (Miltenyi Biotec). BALB/c CD4+ T cells (5×103) were stimulated in 96-well U-bottom plates with equal numbers of polystyrene latex beads (Interfacial Dynamics) coated with 1.0 μg/ml anti-CD3 (145-2C11; eBioscience) and 0.5 μg/ml anti-CD28 (37.51; eBioscience). […] Anti-IL-2 Ab (JES6-1A12; eBioscience) was used at a concentration of 10 μg/ml. Cells were cultured in RPMI 1640 medium (Life Technologies) supplemented with 10% heat-inactivated FCS (Mediatech), 100 nM sodium pyruvate (Life Technologies), 2 mM L-glutamine (Life Technologies), 100 nM nonessential amino acids (Life Technologies), 100 U/ml penicillin/streptomycin (Life Technologies), and 5 nM 2-ME (Sigma-Aldrich). […]

SMILES | proliferation of effector CD4 T cells (CFSE) (effector CD4 T cells) | GRAIL retention in effector CD4 T cells (GRAIL) | cell division / proliferation by CFSE dilution (mouse naive CD4 T cells)
N#CC(=C(/N)Sc1ccccc1N)/C(C#N)=C(\N)Sc1ccccc1N [U0126] | does not inhibit proliferation | does not lead to GRAIL retention | inhibits proliferation
CC(=O)O[C@@H]1[C@@H](OC(C)=O)[C@@H](O)[C@H](Oc2c(-c3ccc(O)cc3)oc3cc(O)cc(O)c3c2=O)O[C@H]1C [SL0101] | does not work alone | – | –
O=C(NOCC(O)CO)c1ccc(F)c(F)c1Nc1ccc(I)cc1F (centres unmarked) [PD0325901, N-(2,3-dihydroxypropoxy)-3,4-difluoro-2-(2-fluoro-4-iodophenylamino)benzamide] | does not work alone | – | –
